In publication PMC8949103 (Viruses, 2022) one finds KI (inactivation) and stoichiometry N data, which are given here for four molecules.

Assay [1] addresses T1, PDCoV M^pro (Porcine deltacoronavirus, UniProt A0A140ESF0). Description: fluorogenic peptide cleavage assay, progress-curve inactivation. In kind it is biochemical. Conditions: covalent; Michael acceptor N3 derivative; assay similar to N3.
For assay [2], the target named is T1, PDCoV M^pro. The description is as above. In kind it is biochemical. The note with it: covalent; irreversible, Cys-144, active site; substrate MCA-AVLQSGFR-Lys(Dnp)-Lys-NH2 50 µM; enzyme 2 µM; pH 7.3, 30 °C.
The target of assay [3] is Porcine deltacoronavirus (PDCoV) main protease (M^pro) (Porcine deltacoronavirus (PDCoV)). Description: crystal structure.

On to `Cc1cc(C(=O)N[C@@H](C)C(=O)N[C@H](C(=O)N[C@@H](CC(C)C)C(=O)N[C@H](/C=C/C(=O)OC(C)C)C[C@@H]2CCNC2=O)C(C)C)no1` [M14], for which the KI (inactivation) in assay [1] came to 7.56 ± 0.26 µM. In turn, `COc1ccc(COC(=O)/C=C/[C@H](C[C@@H]2CCNC2=O)NC(=O)[C@H](CC(C)C)NC(=O)[C@@H](NC(=O)[C@H](C)NC(=O)c2cc(C)on2)C(C)C)cc1` [M25] registered a KI (inactivation) in assay [1] of 8.8 ± 0.15 µM. With `Cc1cc(C(=O)N[C@@H](C)C(=O)N[C@H](C(=O)N[C@@H](CC(C)C)C(=O)N[C@H](/C=C/C(=O)OCc2ccccc2)C[C@@H]2CCNC2=O)C(C)C)no1` [N3], the KI (inactivation) in assay [2] amounted to 12 ± 0.13 µM. As a reminder, the stoichiometry N is a count of units in the complex or per binding partner. As for “Porcine deltacoronavirus (PDCoV) main protease (M^pro) (enzyme)”, the stoichiometry N in assay [3] was determined as 2.
